“And” between values parts separate entries of the source, which are not always exact repeats. Equal values may be shown once.
Test system: 596521-263-R-J1-PDC complex spheroid growth
Assay: Anticancer human tumor 596521-263-R-J1-PDC patient-derived soft tissue sarcoma cell line growth inhibition [Asc]
Conditions: for viability, T/C: stronger effect = lower value
In short: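 Complex spheroids combining tumor cells with HUVEC endothelial cells and human MSCs, at 37 degrees C, 5% CO2; agents tested alone or combined, half-log dilutions from at or near clinical Cmax, or 10 microM if Cmax unknown.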
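Note: spheroids exposed to compounds for 7 days.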

Structure (SMILES): Cn1ncnc1[C@H]1c2n[nH]c(=O)c3cc(F)cc(c23)N[C@@H]1c1ccc(F)cc1 + Cc1c(S(C)(=O)=O)c(-c2cc(F)cc(N3CCN(c4ccc(NS(=O)(=O)c5ccc(NC(CCN6CCC(C(=O)OCCCP(=O)(O)O)CC6)CSc6ccccc6)c(S(=O)(=O)C(F)(F)F)c5)cc4)CC3)c2)c(-c2ccc(Cl)cc2)n1C(C)C
- IC50 (curve of first compound, second compound 0.0316 µM): > 100 nM
- IC50 (curve of first compound, second compound 0.1 µM): > 100 nM
- IC50 (curve of first compound, second compound 0.316 µM): > 100 nM
- IC50 (curve of first compound, second compound 1 µM): > 100 nM
- IC50 (curve of first compound, second compound 3.16 µM): 38.5 nM
- IC50 (curve of first compound, second compound 10 µM): 1.07 nM
- viability, T/C (second compound 0.0316 µM, first compound 0.000316 µM): 97.5%
- viability, T/C (second compound 0.0316 µM, first compound 0.001 µM): 112%
- viability, T/C (second compound 0.0316 µM, first compound 0.00316 µM): 81.9%
- viability, T/C (second compound 0.0316 µM, first compound 0.01 µM): 94.1%
- viability, T/C (second compound 0.0316 µM, first compound 0.0316 µM): 87.4%
- viability, T/C (second compound 0.0316 µM, first compound 0.1 µM): 79.3%
- viability, T/C (second compound 0.1 µM, first compound 0.000316 µM): 90.6%
- viability, T/C (second compound 0.1 µM, first compound 0.001 µM): 97.8%
- viability, T/C (second compound 0.1 µM, first compound 0.00316 µM): 94.3%
- viability, T/C (second compound 0.1 µM, first compound 0.01 µM): 81.6%
- viability, T/C (second compound 0.1 µM, first compound 0.0316 µM): 78.5%
- viability, T/C (second compound 0.1 µM, first compound 0.1 µM): 74.5%
- viability, T/C (second compound 0.316 µM, first compound 0.000316 µM): 88.5%
- viability, T/C (second compound 0.316 µM, first compound 0.001 µM): 86.6%
- viability, T/C (second compound 0.316 µM, first compound 0.00316 µM): 77.7%
- viability, T/C (second compound 0.316 µM, first compound 0.01 µM): 82.8%
- viability, T/C (second compound 0.316 µM, first compound 0.0316 µM): 75.5%
- viability, T/C (second compound 0.316 µM, first compound 0.1 µM): 73.4%
- viability, T/C (second compound 1 µM, first compound 0.000316 µM): 90.9%
- viability, T/C (second compound 1 µM, first compound 0.001 µM): 85.3%
- viability, T/C (second compound 1 µM, first compound 0.00316 µM): 85.2%
- viability, T/C (second compound 1 µM, first compound 0.01 µM): 65%
- viability, T/C (second compound 1 µM, first compound 0.0316 µM): 68.4%
- viability, T/C (second compound 1 µM, first compound 0.1 µM): 61.1%
- viability, T/C (second compound 3.16 µM, first compound 0.000316 µM): 58.7%
- viability, T/C (second compound 3.16 µM, first compound 0.001 µM): 69.5%
- viability, T/C (second compound 3.16 µM, first compound 0.00316 µM): 57.3%
- viability, T/C (second compound 3.16 µM, first compound 0.01 µM): 57.4%
- viability, T/C (second compound 3.16 µM, first compound 0.0316 µM): 52.6%
- viability, T/C (second compound 3.16 µM, first compound 0.1 µM): 40.2%
- viability, T/C (second compound 10 µM, first compound 0.000316 µM): 54.1%
- viability, T/C (second compound 10 µM, first compound 0.001 µM): 50.3%
- viability, T/C (second compound 10 µM, first compound 0.00316 µM): 43.6%
- viability, T/C (second compound 10 µM, first compound 0.01 µM): 42%
- viability, T/C (second compound 10 µM, first compound 0.0316 µM): 42%
- viability, T/C (second compound 10 µM, first compound 0.1 µM): 28.9%

Structure (SMILES): NC(=O)C(=Cn1cnc(-c2cc(C(F)(F)F)cc(C(F)(F)F)c2)n1)c1cncnc1
- viability, T/C (compound 0.000949 µM): 104% and 98.5% and 48.5%
- viability, T/C (compound 0.003 µM): 91.6% and 94.9% and 49.6%
- viability, T/C (compound 0.00949 µM): 87.5% and 83.8% and 46.9%
- viability, T/C (compound 0.03 µM): 58.5% and 51.1% and 32.2%
- viability, T/C (compound 0.0949 µM): 18.1% and 18.5% and 16.5%
- viability, T/C (compound 0.3 µM): 11.2% and 10.3% and 10%

Structure (SMILES): Cn1ncnc1[C@H]1c2n[nH]c(=O)c3cc(F)cc(c23)N[C@@H]1c1ccc(F)cc1
- viability, T/C (compound 0.000316 µM): 95.5% and 111% and 105%
- viability, T/C (compound 0.001 µM): 101% and 97% and 98.5%
- viability, T/C (compound 0.00316 µM): 97.5% and 93.9% and 87.1%
- viability, T/C (compound 0.01 µM): 87.1% and 98% and 103%
- viability, T/C (compound 0.0316 µM): 105% and 96.6% and 94.3%
- viability, T/C (compound 0.1 µM): 79.6% and 84.5% and 82.6%
- IC50 (curve of compound): > 100 nM

Structure (SMILES): NC1CCC(NC2CC2c2ccccc2)CC1 (centres undefined) + CCN1C(C(=O)NC23CCC(C(=O)O)(CC2)CC3)C(c2cccc(Cl)c2F)C2(C(=O)Nc3cc(Cl)ccc32)C12CCCCC2
- IC50 (curve of first compound, second compound 0.00949 µM): > 100 nM
- IC50 (curve of first compound, second compound 0.03 µM): > 100 nM
- IC50 (curve of first compound, second compound 0.0949 µM): > 100 nM
- IC50 (curve of first compound, second compound 0.3 µM): > 100 nM
- IC50 (curve of first compound, second compound 0.949 µM): > 100 nM
- IC50 (curve of first compound, second compound 3 µM): > 100 nM
- viability, T/C (second compound 0.00949 µM, first compound 0.000316 µM): 98.8%
- viability, T/C (second compound 0.00949 µM, first compound 0.001 µM): 78.1%
- viability, T/C (second compound 0.00949 µM, first compound 0.00316 µM): 84.2%
- viability, T/C (second compound 0.00949 µM, first compound 0.01 µM): 88.9%
- viability, T/C (second compound 0.00949 µM, first compound 0.0316 µM): 83.7%
- viability, T/C (second compound 0.00949 µM, first compound 0.1 µM): 105%
- viability, T/C (second compound 0.03 µM, first compound 0.000316 µM): 84.2%
- viability, T/C (second compound 0.03 µM, first compound 0.001 µM): 85.3%
- viability, T/C (second compound 0.03 µM, first compound 0.00316 µM): 89.6%
- viability, T/C (second compound 0.03 µM, first compound 0.01 µM): 87.6%
- viability, T/C (second compound 0.03 µM, first compound 0.0316 µM): 82.5%
- viability, T/C (second compound 0.03 µM, first compound 0.1 µM): 88.7%
- viability, T/C (second compound 0.0949 µM, first compound 0.000316 µM): 95.3%
- viability, T/C (second compound 0.0949 µM, first compound 0.001 µM): 87.9%
- viability, T/C (second compound 0.0949 µM, first compound 0.00316 µM): 85%
- viability, T/C (second compound 0.0949 µM, first compound 0.01 µM): 84.5%
- viability, T/C (second compound 0.0949 µM, first compound 0.0316 µM): 89.1%
- viability, T/C (second compound 0.0949 µM, first compound 0.1 µM): 81.4%
- viability, T/C (second compound 0.3 µM, first compound 0.000316 µM): 87.7%
- viability, T/C (second compound 0.3 µM, first compound 0.001 µM): 87.7%
- viability, T/C (second compound 0.3 µM, first compound 0.00316 µM): 80.7%
- viability, T/C (second compound 0.3 µM, first compound 0.01 µM): 94.1%
- viability, T/C (second compound 0.3 µM, first compound 0.0316 µM): 85.4%
- viability, T/C (second compound 0.3 µM, first compound 0.1 µM): 87.8%
- viability, T/C (second compound 0.949 µM, first compound 0.000316 µM): 94.7%
- viability, T/C (second compound 0.949 µM, first compound 0.001 µM): 87.2%
- viability, T/C (second compound 0.949 µM, first compound 0.00316 µM): 87.9%
- viability, T/C (second compound 0.949 µM, first compound 0.01 µM): 97.3%
- viability, T/C (second compound 0.949 µM, first compound 0.0316 µM): 92.8%
- viability, T/C (second compound 0.949 µM, first compound 0.1 µM): 82.5%
- viability, T/C (second compound 3 µM, first compound 0.000316 µM): 80.9%
- viability, T/C (second compound 3 µM, first compound 0.001 µM): 83.2%
- viability, T/C (second compound 3 µM, first compound 0.00316 µM): 85.2%
- viability, T/C (second compound 3 µM, first compound 0.01 µM): 71%
- viability, T/C (second compound 3 µM, first compound 0.0316 µM): 75.9%
- viability, T/C (second compound 3 µM, first compound 0.1 µM): 82.7%

Structure (SMILES): C=CC(=O)N1CCN(c2nc(=O)n(-c3c(C)ccnc3C(C)C)c3nc(-c4c(O)cccc4F)c(F)cc23)C(C)C1 (centres undefined)
- viability, T/C (compound 0.0316 µM): 93.6% and 91.4%
- viability, T/C (compound 0.1 µM): 101% and 93.4%
- viability, T/C (compound 0.316 µM): 97.6% and 109%
- viability, T/C (compound 1 µM): 108% and 112%
- viability, T/C (compound 3.16 µM): 96.7% and 107%
- viability, T/C (compound 10 µM): 78% and 88.9%
- IC50 (curve of compound): > 10000 nM
